Laboratory results published in paper PMC7470027, “Synthesis and structure-activity relationships of novel 5-(hydroxamic acid)methyl oxazolidinone derivatives as 5-lipoxygenase inhibitors” (Journal of Enzyme Inhibition and Medicinal Chemistry, 2020).
pIC50: −log10 of the molar value.

Assays:
isolated human monocytes = experiment: In vitro toxicity testing, MTT viability; type: cell-based; details: concentrations up to 50 μM, 3 h or 24 h
Experimental: Adherent human monocytes, prepared as described above were cultured with various concentrations of the test compounds or vehicle, or with 0.05% Triton-X as a positive control for 3 h or 24 h. At the end of the culture, cell viability was determined using the standard MTT assay method. Briefly, 15 μL of the MTT solution (5 mg/ml) was added to each well and incubated at 37 °C for 4 h. After removing the supernatant, 200 μL of DMSO was added to dissolve the crystals. Absorbance at 570 nm was then measured in a microplate reader. Viability was expressed as a percentage of the vehicle-treated cells.

recombinant human 5-LO = molecular target: T1, recombinant human 5-LO (Homo sapiens, UniProt P09917); experiment: Direct inhibition of 5-LO activity in a cell-free assay (H2DCF-DA fluorescence); type: biochemical; details: cell-free, recombinant human 5-LO; 95% confidence interval in brackets
T1 sequence (P09917 1-674): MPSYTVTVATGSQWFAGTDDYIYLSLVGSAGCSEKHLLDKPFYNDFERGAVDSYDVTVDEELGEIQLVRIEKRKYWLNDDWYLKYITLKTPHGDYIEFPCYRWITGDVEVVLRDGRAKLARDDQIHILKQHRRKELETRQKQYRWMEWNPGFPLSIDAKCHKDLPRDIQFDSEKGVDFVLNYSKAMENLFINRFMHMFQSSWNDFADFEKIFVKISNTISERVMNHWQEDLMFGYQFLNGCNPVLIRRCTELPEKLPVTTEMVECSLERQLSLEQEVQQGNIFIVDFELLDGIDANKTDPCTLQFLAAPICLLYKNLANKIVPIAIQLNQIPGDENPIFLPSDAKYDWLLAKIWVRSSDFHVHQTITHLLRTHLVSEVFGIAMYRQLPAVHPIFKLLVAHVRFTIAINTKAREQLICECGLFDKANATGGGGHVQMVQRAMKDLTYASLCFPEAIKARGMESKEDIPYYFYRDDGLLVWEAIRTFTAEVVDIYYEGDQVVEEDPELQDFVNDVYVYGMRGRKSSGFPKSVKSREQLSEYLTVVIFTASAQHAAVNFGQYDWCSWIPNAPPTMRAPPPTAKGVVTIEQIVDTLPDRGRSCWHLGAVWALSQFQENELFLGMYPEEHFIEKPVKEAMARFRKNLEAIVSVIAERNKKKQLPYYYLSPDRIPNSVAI
Experimental: The assay was based on the oxidation of the dye 2′,7′-dichlorodihydrofluorescein diacetate (H2DCF-DA) to a highly fluorescent product by 5-LO enzymatic products. H2DCF-DA (60 µM) was first pre-cleaved by incubating with 450 mU/ml recombinant human 5-LO enzyme in Tris buffer (containing 50 mM Tris, pH = 7.5, 2 mM EDTA, 2 mM CaCl2, 1 mM DTT and 0.6 U/ml glutathione peroxidase) for 10 min at room temperature. […] After 10 min incubation at room temperature, the reaction was started with the addition of 50 µl of substrate solution (Tris buffer containing 20 µM ATP and 20 µM arachidonic acid (AA). After a further 20 min, the reaction was terminated with 100 µl acetonitrile. Fluorescence was read at 500 nm excitation and 520 nm emission, with Novostar^R microplate reader (BMG Labtech, Offenburg, Germany). Appropriate controls, including 100 µM nordihydroguaiaretic acid (NDGA), were included to isolate only the 5-LO-attributable, NDGA-inhibitable RFU values.
(§1) All data were analysed using GraphPad Prism software (GraphPad Software, San Diego, CA). […] Differences between experimental groups were first analysed by one-way ANOVA, followed by Bonferroni’s post-hoc test. A p-value of less than 0.05 was taken as statistically significant.

[1] = tested on: 5-LO product LTC4 from isolated human monocytes; experiment: Inhibition of 5-LO product LTC4 from isolated human monocytes (A23187); type: cell-based; details: Monocyte, calcium ionophore A23187, 95% confidence interval in brackets, read-out: Human monocyte LTC4 IC50 (CI)
Experimental: Mononuclear cells were first isolated from heparinised blood using the Ficoll-Hypaque gradient centrifugation method. Monocytes were subsequently purified by adherence to plastic according to standard protocols. The purity of the adherent monocytes (CD14+) was routinely confirmed by flow cytometry to be >95% and viability (by trypan blue exclusion method) was routinely >97%. Adherent monocytes were then washed and incubated in 190 µl culture medium RPMI-1640 supplemented with 100 U/ml penicillin, 100 µg/ml streptomycin and 10% heat-inactivated foetal bovine serum (Sigma-Aldrich, St Louis, MO). […] After further incubation for 15 min, the culture supernatants were recovered by centrifugation and stored at −40 °C pending LTC4 determination.
Appropriately diluted supernatants were assayed for the released products – LTs (LTB4 and LTC4), by the enzyme immunoassay (EIA) method using assay kits supplied by R&D Systems (Minneapolis, MN) and following the manufacturer’s instructions.
as §1

[2] = tested on: zymosan-induced peritoneal inflammation; experiment: Zymosan-induced peritoneal inflammation model in mice; type: in vivo, mouse; details: for Inhibition of total LTC4 content of the peritoneal lavage fluid: p < 0.001 vs zymosan plus vehicle
Experimental: Female Balb/c mice 6 to 8-weeks-old obtained from the Animal Resources Centre of the Health Sciences Centre, Kuwait University, were used. They were maintained under temperature-controlled conditions with an artificial 12-h light/dark cycle and allowed standard chow and water ad libitum. The study was carried out in compliance with the Regulations for the Use of Laboratory Animals in the Health Sciences Centre, Kuwait University, and complied with the National Institute of Health guide for the care and use of laboratory animals (NIH Publication # 8023, revised 1978). The zymosan-induced peritonitis model - a recognised LT-mediated inflammatory reaction, was used. […] After 30 min, all groups were injected intraperitoneally with 0.2 ml of activated zymosan (2 mg/ml) except the control group that received 0.2 ml PBS. After 2 h, all animals were killed, and the peritoneal exudate collected by washing the cavity with 3 ml of heparinised (10 IU/ml) PBS. Cells in the exudate were recovered by centrifugation and counted in a haemocytometer while the supernatant volume was recorded and then stored frozen at −78 °C until used for the determination of LTC4 by ELISA as detailed above.

[3] = 10 mg/kg subcutaneously 30 min before zymosan

pIC50 (recombinant human 5-LO): 5.72
pIC50 [1]: 6.05
Structure (SMILES): CCCCCCC(=O)N(O)C[C@H]1CN(c2ccc(N3CCOCC3)c(F)c2)C(=O)O1 [PH-249, (R)-N-((3-(3-fluoro-4-morpholinophenyl)-2-oxooxazolidin-5-yl)methyl)-N-hydroxyheptanamide]
Effect on viability of isolated human monocytes (MTT) (isolated human monocytes): no significant effect on cell viability
Inhibition of cellular infiltration (total cellular content of peritoneal lavage) [2, 3]: only the inhibition by the higher dose reached statistical significance
Inhibition of total LTC4 content of the peritoneal lavage fluid [2, 3]: highly significant inhibition
Inhibition of total LTC4 content of the peritoneal lavage fluid ([2]; 30 mg/kg subcutaneously 30 min before zymosan): highly significant inhibition
Inhibition of cellular infiltration (total cellular content of peritoneal lavage) ([2]; 30 mg/kg subcutaneously 30 min before zymosan, p < 0.01 vs zymosan plus vehicle): reached statistical significance
